Legend:
Assay in all cases: Test B pre-/postemergence plant response
Type in all cases: in vivo
kochia (Kochia scoparia) = tested on: kochia (Kochia scoparia)
Summary of the method: (§1)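 Steps: sow seed in loam–sand soil and spray preemergence, or grow plants in peat-based medium to 1–4 leaves (2–18 cm) and spray postemergence; formulation is non-phytotoxic solvent plus surfactant; hold in greenhouse 13–15 days; score visually vs controls, 0 = no effect, 100 = complete control.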

[1] = tested on: Italian ryegrass (Lolium multiflorum)
Summary of the method: as §1

[2] = tested on: ragweed (common ragweed, Ambrosia elatior)
Summary of the method: as §1

[3] = tested on: Surinam grass (Brachiaria decumbens)
Summary of the method: as §1

[4] = tested on: johnsongrass (Sorghum halepense)
Summary of the method: as §1

[5] = tested on: velvetleaf (Abutilon theophrasti)
Summary of the method: as §1

[6] = tested on: downy bromegrass (Bromus tectorum)
Summary of the method: as §1

[7] = tested on: lambsquarters (Chenopodium album)
Summary of the method: as §1

[8] = tested on: blackgrass (Alopecurus myosuroides)
Summary of the method: as §1

[9] = tested on: green foxtail (Setaria viridis)
Summary of the method: as §1

[10] = tested on: woolly cupgrass (Eriochloa villosa)
Summary of the method: as §1

[11] = tested on: bermudagrass (Cynodon dactylon)
Summary of the method: as §1

[12] = tested on: goosegrass (Eleusine indica)
Summary of the method: as §1

[13] = tested on: yellow nutsedge (Cyperus esculentus)
Summary of the method: as §1

[14] = tested on: giant foxtail (Setaria faberii)
Summary of the method: as §1

corn (Zea mays) = tested on: corn (Zea mays)
Summary of the method: as §1

[15] = tested on: large crabgrass (Digitaria sanguinalis)
Summary of the method: as §1

[16] = 31 g ai/ha, postemergence, scale 0 to 100, 0 is no effect, 100 is complete control
[17] = Postemergence, 62 g ai/ha, scale 0 (no effect) to 100 (complete control), 13 to 15 days
[18] = Postemergence, 125 g ai/ha, visual rating after 13 to 15 days, scale 0 (no effect) to 100 (complete control)
[19] = Postemergence, 250 g ai/ha, scale 0 to 100 (0 no effect, 100 complete control)
[20] = Preemergence, 31 g ai/ha, scale 0 to 100 (0 no effect, 100 complete control)
[21] = Preemergence, 62 g ai/ha, scale 0 to 100, 0 no effect, 100 complete control
[22] = Preemergence, 125 g ai/ha, scale 0 to 100, 0 no effect, 100 complete control
[23] = 250 g ai/ha, Preemergence, 0 to 100 scale

SMILES: Cc1cccc(-n2c(-c3ccccc3)ncc(C(=O)C3=C(O)CCCC3=O)c2=O)c1F [Compound 58]
- Plant response rating, Kochia (kochia (Kochia scoparia); [16]): 0
- Plant response rating, Kochia (kochia (Kochia scoparia); [17]): 10
- Plant response rating, Kochia (kochia (Kochia scoparia); [18]): 25
- Plant response rating, Kochia (kochia (Kochia scoparia); [19]): 25
- Plant response rating, Ryegrass, Italian [1, 16]: 0
- Plant response rating, Ryegrass, Italian [1, 17]: 0
- Plant response rating, Ryegrass, Italian [1, 18]: 30
- Plant response rating, Ryegrass, Italian [1, 19]: 70
- Plant response rating, Ryegrass, Italian [1, 20]: 0
- Plant response rating, Ryegrass, Italian [1, 21]: 0
- Plant response rating, Ryegrass, Italian [1, 22]: 0
- Plant response rating, Ragweed [2, 16]: 80
- Plant response rating, Ragweed [2, 17]: 85
- Plant response rating, Ragweed [2, 18]: 90
- Plant response rating, Ragweed [2, 19]: 98
- Plant response rating, Ragweed [2, 20]: 20
- Plant response rating, Ragweed [2, 21]: 75
- Plant response rating, Ragweed [2, 22]: 85
- Plant response rating, Surinam Grass [3, 16]: 70
- Plant response rating, Surinam Grass [3, 17]: 80
- Plant response rating, Surinam Grass [3, 18]: 95
- Plant response rating, Surinam Grass [3, 19]: 98
- Plant response rating, Surinam Grass [3, 20]: 40
- Plant response rating, Surinam Grass [3, 21]: 65
- Plant response rating, Surinam Grass [3, 22]: 85
- Plant response rating, Johnsongrass [4, 16]: 50
- Plant response rating, Johnsongrass [4, 23]: 85
- Plant response rating, Johnsongrass [4, 17]: 85
- Plant response rating, Johnsongrass [4, 18]: 98
- Plant response rating, Johnsongrass [4, 19]: 100
- Plant response rating, Johnsongrass [4, 20]: 10
- Plant response rating, Johnsongrass [4, 21]: 20
- Plant response rating, Johnsongrass [4, 22]: 80
- Plant response rating, Velvetleaf [5, 16]: 75
- Plant response rating, Velvetleaf [5, 17]: 75
- Plant response rating, Velvetleaf [5, 18]: 85
- Plant response rating, Velvetleaf [5, 19]: 95
- Plant response rating, Velvetleaf [5, 20]: 75
- Plant response rating, Velvetleaf [5, 21]: 80
- Plant response rating, Velvetleaf [5, 22]: 95
- Plant response rating, Bromegrass, Downy [6, 16]: 40
- Plant response rating, Bromegrass, Downy [6, 23]: 0
- Plant response rating, Bromegrass, Downy [6, 17]: 40
- Plant response rating, Bromegrass, Downy [6, 18]: 45
- Plant response rating, Bromegrass, Downy [6, 19]: 50
- Plant response rating, Bromegrass, Downy [6, 20]: 0
- Plant response rating, Bromegrass, Downy [6, 21]: 0
- Plant response rating, Bromegrass, Downy [6, 22]: 0
- Plant response rating, Lambsquarters [7, 16]: 95
- Plant response rating, Lambsquarters [7, 23]: 98
- Plant response rating, Lambsquarters [7, 17]: 95
- Plant response rating, Lambsquarters [7, 18]: 100
- Plant response rating, Lambsquarters [7, 19]: 100
- Plant response rating, Lambsquarters [7, 20]: 85
- Plant response rating, Lambsquarters [7, 21]: 98
- Plant response rating, Lambsquarters [7, 22]: 98
- Plant response rating, Blackgrass [8, 16]: 5
- Plant response rating, Blackgrass [8, 23]: 30
- Plant response rating, Blackgrass [8, 17]: 10
- Plant response rating, Blackgrass [8, 18]: 20
- Plant response rating, Blackgrass [8, 19]: 40
- Plant response rating, Blackgrass [8, 20]: 0
- Plant response rating, Blackgrass [8, 21]: 0
- Plant response rating, Blackgrass [8, 22]: 5
- Plant response rating, Foxtail, Green [9, 16]: 75
- Plant response rating, Foxtail, Green [9, 23]: 100
- Plant response rating, Foxtail, Green [9, 17]: 90
- Plant response rating, Foxtail, Green [9, 18]: 98
- Plant response rating, Foxtail, Green [9, 19]: 100
- Plant response rating, Foxtail, Green [9, 20]: 0
- Plant response rating, Foxtail, Green [9, 21]: 5
- Plant response rating, Foxtail, Green [9, 22]: 70
- Plant response rating, Cupgrass, Woolly [10, 16]: 65
- Plant response rating, Cupgrass, Woolly [10, 23]: 85
- Plant response rating, Cupgrass, Woolly [10, 17]: 65
- Plant response rating, Cupgrass, Woolly [10, 18]: 70
- Plant response rating, Cupgrass, Woolly [10, 19]: 95
- Plant response rating, Cupgrass, Woolly [10, 20]: 10
- Plant response rating, Cupgrass, Woolly [10, 21]: 10
- Plant response rating, Cupgrass, Woolly [10, 22]: 20
- Plant response rating, Bermudagrass [11, 16]: 85
- Plant response rating, Bermudagrass [11, 23]: 100
- Plant response rating, Bermudagrass [11, 17]: 85
- Plant response rating, Bermudagrass [11, 18]: 98
- Plant response rating, Bermudagrass [11, 19]: 100
- Plant response rating, Bermudagrass [11, 20]: 98
- Plant response rating, Bermudagrass [11, 21]: 98
- Plant response rating, Bermudagrass [11, 22]: 100
- Plant response rating, Goosegrass [12, 16]: 70
- Plant response rating, Goosegrass [12, 23]: 100
- Plant response rating, Goosegrass [12, 17]: 75
- Plant response rating, Goosegrass [12, 18]: 85
- Plant response rating, Goosegrass [12, 19]: 90
- Plant response rating, Goosegrass [12, 20]: 95
- Plant response rating, Goosegrass [12, 21]: 98
- Plant response rating, Goosegrass [12, 22]: 100
- Plant response rating, Nutsedge, Yellow [13, 16]: 25
- Plant response rating, Nutsedge, Yellow [13, 17]: 40
- Plant response rating, Nutsedge, Yellow [13, 18]: 55
- Plant response rating, Nutsedge, Yellow [13, 19]: 75
- Plant response rating, Nutsedge, Yellow [13, 20]: 20
- Plant response rating, Nutsedge, Yellow [13, 21]: 75
- Plant response rating, Nutsedge, Yellow [13, 22]: 75
- Plant response rating, Foxtail, Giant [14, 16]: 75
- Plant response rating, Foxtail, Giant [14, 23]: 75
- Plant response rating, Foxtail, Giant [14, 17]: 85
- Plant response rating, Foxtail, Giant [14, 18]: 90
- Plant response rating, Foxtail, Giant [14, 19]: 98
- Plant response rating, Foxtail, Giant [14, 20]: 10
- Plant response rating, Foxtail, Giant [14, 21]: 20
- Plant response rating, Foxtail, Giant [14, 22]: 75
- Plant response rating, Corn (corn (Zea mays); [16]): 0
- Plant response rating, Corn (corn (Zea mays); [23]): 0
- Plant response rating, Corn (corn (Zea mays); [17]): 45
- Plant response rating, Corn (corn (Zea mays); [18]): 65
- Plant response rating, Corn (corn (Zea mays); [19]): 80
- Plant response rating, Corn (corn (Zea mays); [20]): 0
- Plant response rating, Corn (corn (Zea mays); [21]): 0
- Plant response rating, Corn (corn (Zea mays); [22]): 0
- Plant response rating, Crabgrass, Large [15, 16]: 75
- Plant response rating, Crabgrass, Large [15, 23]: 100
- Plant response rating, Crabgrass, Large [15, 17]: 80
- Plant response rating, Crabgrass, Large [15, 18]: 90
- Plant response rating, Crabgrass, Large [15, 19]: 90
- Plant response rating, Crabgrass, Large [15, 20]: 95
- Plant response rating, Crabgrass, Large [15, 21]: 98
- Plant response rating, Crabgrass, Large [15, 22]: 98

Reference: US8952024B2, “Herbicidal pyrimidone derivatives” (E I du Pont de Nemours and Company, priority 2009, dated 2015)
